PMC7188706 (Cancer Chemotherapy and Pharmacology, 2020)
“Also recorded” adds a separate entry of the source. Read-outs that look alike come from different tables or passages of the source.

Experiments:
[1] = test system: advanced solid malignancies; conditions: cited from earlier work
[2] = test system: patients with known EGFR mutations; conditions: cited from earlier work
NSCLC patients = test system: NSCLC patients; design: method as in PMID 16878326; conditions: 2000 mg per week; cited from earlier work
[3] = design: method as in PMID 26858332; conditions: patients using omeprazole; cited from earlier work
[4] = test system: HER2-positive breast cancer; design: method as in PMID 24711549; conditions: escalated to 7000 mg on days 1–5 of repeating 14-day cycles, heavily pre-treated patients; cited from earlier work
[5] = Plasma pharmacokinetics and drug monitoring of high-dose, pulsatile sorafenib (LC-MS/MS, non-compartmental); conditions: for Cmax / AUC(0-t): human, oral
Description: (§1) This single center phase I study was conducted at the Amsterdam UMC, location VUmc, the Netherlands. […] The starting exposure level was 25–50 mg/L/h, analogous to the continuous schedule [23], and was escalated in subsequent cohorts with increments of 25 mg/L/h.
Per patient a maximum of two dose adjustments were permitted. In addition, the maximum concentration (Cmax) and time of maximum concentration (Tmax) were determined.

[6] = test system: patients with advanced solid malignancies; assay: Phase I safety: treatment-related adverse events (CTCAE v4.0) and dose-limiting toxicity of once weekly high-dose, pulsatile sorafenib;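 further: Single-center phase I trial, adverse events graded by NCI CTCAE version 4.0, safety checks weekly over the first 8 weeks, then every 4 weeks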
Description: as §1
(§2) Each dose was dissolved in either a large glass of water or classic Coca-Cola (the Coca-Cola Company, Atlanta GA) (~ 240 ml).
(§3) Safety and tolerability assessments, including physical examination, ECG and blood hematology and chemistry, were performed weekly during the first 8 weeks and once every 4 weeks thereafter. Adverse events (AEs) were graded according to the National Cancer Institute Common Terminology Criteria for Adverse Events version 4.0.
(§4) Dose (/exposure)-limiting toxicity (DLT) was defined as any grade 3 toxicity that occurred within the first 6 weeks of treatment and possibly related to the study drug.

[7] = test system: progressive renal cell carcinoma; conditions: 600 mg twice daily after failure of standard dosing; cited from earlier work
[8] = test system: 789-O renal cell carcinoma xenografts; conditions: high-dose schedule; also increased reduction of tumor perfusion and microvessel density; cited from earlier work
[9] = cited from earlier work
[10] = design: method as in PMID 15613696; conditions: 400 mg twice daily; cited from earlier work
[11] = test system: patients with advanced solid malignancies; conditions: in vivo;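 further: Single-center phase I trial, adverse events graded by NCI CTCAE version 4.0, safety checks weekly over the first 8 weeks, then every 4 weeks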
Description: as §1, §2, §3, §4

[12] = test system: advanced solid malignancies; assay: Tumor response by CT or MRI using RECIST version 1.1; format: in vivo, human
Description: Tumor response was assessed by computed tomography or magnetic resonance imaging at baseline and every 8 weeks thereafter using RECIST version 1.1 [24].
Descriptive statistics were used to describe patient characteristics, treatment administration, safety, efficacy and pharmacokinetic data. […] Fisher’s exact tests were used to assess correlations between exposure level or dose and frequency of AEs. […] Data were considered significant at P < 0.05.

[13] = cited from earlier work; remark: listed apart in the source
[14] = cited from earlier work; remark: listed apart in the source
patients = conditions: cited from earlier work
[15] = Effect of cola versus water on sorafenib exposure (dose normalized Cmax and AUC(0–12 h)); format: in vivo, human; conditions: dissolved in cola vs water, patients using PPI
From the text: Descriptive statistics were used to describe patient characteristics, treatment administration, safety, efficacy and pharmacokinetic data. Progression-free survival (PFS) was defined as the time from first treatment until progression of disease or death as a result of any cause. Fisher’s exact tests were used to assess correlations between exposure level or dose and frequency of AEs. […] Data were considered significant at P < 0.05.

[16] = cited from earlier work; remark: listed apart in the source

## CCN(CC)CCNC(=O)c1c(C)[nH]c(/C=C2\C(=O)Nc3ccc(F)cc32)c1C [sunitinib]
[1]; 14 times the conventional dose
  increase of Cmax: 18 fold
[1]
  patients with PFS of ≥ 5 months: 30%
[1]; more than 70 heavily pre-treated patients
  patients with clinical benefit: 63%

## C#Cc1cccc(Nc2ncnc3cc(OCCOC)c(OCCOC)cc23)c1 [erlotinib]
[2]; erlotinib 450 mg every 3 days or gefitinib 1000 mg every 4 days
  tolerability: well tolerated
[2]; erlotinib 450 mg every 3 days
  median PFS: 6 months
  response rate: 15%
NSCLC patients
  mean overall survival (OS): 9.5 months
  tolerability: well tolerated
[3]
  effect of cola intake on bioavailability: did improve by cola intake

## CS(=O)(=O)CCNCc1ccc(-c2ccc3ncnc(Nc4ccc(OCc5cccc(F)c5)c(Cl)c4)c3c2)o1 [lapatinib]
[4]
  objective response rate: 15%

## CNC(=O)c1cc(Oc2ccc(NC(=O)Nc3ccc(Cl)c(C(F)(F)F)c3)cc2)cc[n+]1[O-] [sorafenib N-oxide]
[5]; plasma
  metabolite as share of the parent drug: approximately 4%

## CNC(=O)c1cc(Oc2ccc(NC(=O)Nc3ccc(Cl)c(C(F)(F)F)c3)cc2)ccn1 [sorafenib]
[6]
  tolerated dose in a pulsatile schedule as multiple of conventional dose: ~ 3.5 times
[7]
  patients with tumor reduction: 42%
[8]
  tumor growth in comparison to continuous conventional dosing: slower tumor growth
[9]
  improvement of absorption by multiple divided doses per day: 50%
[9]; contradicting results
  effects of PPI on sorafenib absorption: no effects to one-third reduction
[9]; daily continuous schedule
  dose above which absorption is saturable: > 800 mg/day
[9]; in comparison to a high fat meal of ≥ 50% fat
  improvement of absorption by a moderate fat meal: 30%
[10]
  mean Cmax, steady state: 5400 to 9400 ng/mL
  mean sorafenib exposure (AUC), day 1: 21.8 to 107 mg/L/h
  mean sorafenib exposure (AUC), steady state: 47.8 to 71.7 mg/L/h
[11]; human
  ALP increased, Grade All, no. of patients (%): 3 (20%)
  ALP increased, Grade ≥ 3, no. of patients (%): 2 (13%)
  Anorexia, Grade All, no. of patients (%): 3 (20%)
  Anorexia, Grade ≥ 3, no. of patients (%): 0
  Bilirubin increased, Grade All, no. of patients (%): 2 (13%)
  Bilirubin increased, Grade ≥ 3, no. of patients (%): 0
  Bloating, Grade All, no. of patients (%): 2 (13%)
  Bloating, Grade ≥ 3, no. of patients (%): 0
  Diarrhea, Grade All, no. of patients (%): 4 (27%)
  Diarrhea, Grade ≥ 3, no. of patients (%): 0
  Fatigue, Grade All, no. of patients (%): 10 (67%)
  Fatigue, Grade ≥ 3, no. of patients (%): 0
  GGT increased, Grade All, no. of patients (%): 1 (7%)
  GGT increased, Grade ≥ 3, no. of patients (%): 1 (7%)
  Multiorgan failure, Grade All, no. of patients (%): 1 (7%)
  Multiorgan failure, Grade ≥ 3, no. of patients (%): 1 (7%)
  Nausea, Grade All, no. of patients (%): 10 (67%)
  Nausea, Grade ≥ 3, no. of patients (%): 0
  Perforation, Grade All, no. of patients (%): 2 (13%)
  Perforation, Grade ≥ 3, no. of patients (%): 2 (13%)
  Stomatitis, Grade All, no. of patients (%): 2 (13%)
  Stomatitis, Grade ≥ 3, no. of patients (%): 0
  Vomiting, Grade All, no. of patients (%): 8 (53%)
  Vomiting, Grade ≥ 3, no. of patients (%): 0
  diarrhea, frequency: 27%
  doses from which grade ≥ 3 AEs developed: ≥ 2800 mg/week
  fatigue, frequency: 67%
  incidence of perforation: 13%
  nausea, frequency: 67%
  patients requiring dose interruptions: 33%
  patients with dose interruptions due to DLTs leading to permanent study discontinuation: 20%
  vomiting, frequency: 53%
[11]; human, 3 cycles
  dose-limiting toxicity, one patient: grade 5 biliary tract perforation
[11]
  frequency and rate of grade ≥ 3 AEs versus dose: increased with a higher dose of sorafenib
  frequency and rate of grade ≥ 3 AEs versus exposure: did not increase with higher exposure
  patients with dose-limiting toxicity: three patients
[12]; patient with cholangiocarcinoma, target exposure 75–100 mg/L/h, 2400 mg/week
  duration of stable disease: 3 months
[12]; patient with hepatocellular carcinoma, target exposure 100–125 mg/L/h, 4800 mg/week
  duration of stable disease: 5.5 months
[12]; thirteen patients evaluable
  complete or partial responses: No complete or partial responses were observed
[12]; thirteen patients evaluable, eleven patients
  progressive disease, patients: 85%
[12]; thirteen patients evaluable, two patients
  best response stable disease, patients: 15%
[13]; pH 1.0
  solubility: 0.034 mg/100 mL
[13]; pH 4.5
  solubility: 0.013 mg/100 mL
[5]; Cohort 1, target AUC(0–12 h) 25–50 mg/L/h, PK-guided dose week 3 533 (± 306) mg, plasma
  Observed AUC(0–12 h) week 3, mean (± SD): 31 (± 13) mg/L/h
[5]; after drug monitoring / personalized dose titration, SD ± 32%, P = 0.06 vs week 1
  mean difference between observed and target AUC(0–12 h), week 3: 2%
[5]; fixed starting dose, SD ± 56%
  mean difference between observed and target AUC(0–12 h), week 1: 45%
[5]; plasma, 533 mg, Cmax week 3, mean (± SD), Cohort 1, PK-guided dose week 3 533 (± 306) mg
  Cmax: 4380 ng/mL
[5]; plasma, 1000 mg, AUC(0–12 h), range, first exposure cohort, target AUC(0–12 h) 25–50 mg/L/h
  AUC(0-t): 61 to 103 µg·h/mL
[5]; plasma, 1000 mg, Observed AUC(0–12 h) week 1, mean (± SD), Cohort 1, 3 patients, target AUC(0–12 h) 25–50 mg/L/h, fixed dose week 1 1000 mg
  AUC(0-t): 78 µg·h/mL
[5]; plasma, 1867 mg, Cmax week 3, mean (± SD), Cohort 2, PK-guided dose week 3 1867 (± 993) mg
  Cmax: 11100 ng/mL
[5]; plasma, 2000 mg, Cmax week 1, mean (± SD), Cohort 2, 8 patients, fixed dose week 1 2000 mg
  Cmax: 13700 ng/mL
[5]; plasma, 2000 mg, Observed AUC(0–12 h) week 1, mean (± SD), Cohort 2, 8 patients, target AUC(0–12 h) 75–100 mg/L/h, fixed dose week 1 2000 mg
  AUC(0-t): 125 µg·h/mL
[5]; plasma, 2333 mg, Cmax week 3, mean (± SD), Cohort 3, PK-guided dose week 3 2333 (± 219) mg
  Cmax: 13300 ng/mL
[5]; plasma, 2400 mg, Cmax week 1, mean (± SD), Cohort 3, 3 patients, fixed dose week 1 2400 mg
  Cmax: 20800 ng/mL
[5]; plasma, 2400 mg, Cmax, highest, SD ± 11 mg/L
  Cmax: ≤ 21000 ng/mL
[5]; plasma, 2400 mg, highest exposure levels, AUC(0–12 h), SD ± 113 mg/L/h
  AUC(0-t): ≤ 204 µg·h/mL
[5]; plasma, 2800 mg, Observed AUC(0–12 h) week 1, mean (± SD), Cohort 4, 3 patients, target AUC(0–12 h) 125–150 mg/L/h, fixed dose week 1 2800 mg
  AUC(0-t): 120 µg·h/mL
[5]; plasma, 3600 mg, observed AUC(0–12 h), individual patient, patient with grade 5 biliary tract perforation, sorafenib dose 3600 mg
  AUC(0-t): 182 µg·h/mL
[5]; no additional increases thereafter, divided doses of 200–400 mg every 2 h
  sorafenib dose up to which mean exposure increased: up to 2400 mg per week
[5]; once weekly
  accumulation a week after each ingestion: No accumulation
[14]
  association of higher AUCmax (> 100 mg/L/h) with outcome: longer progression-free survival
patients; standard continuous schedule
  incidence of perforation of the gastrointestinal tract: < 1%
patients; standard dose sorafenib, several phase I studies
  most important DLTs: skin toxicity, diarrhea and fatigue
[15]; P = 0.24
  effect of cola on sorafenib AUC(0–12 h): did not improve sorafenib exposure; also recorded: did not lead to an increase; also recorded: did not affect
[15]; P = 0.33
  effect of cola on sorafenib Cmax: did not lead to an increase; also recorded: did not affect
[16]
  enterohepatic circulation: has been observed
